The results in this text go back to patent US7592345B2, “Piperazine and [1,4]diazepan derivatives as NK antagonists” (Hoffmann-La Roche Inc., priority 2007, dated 2009).

Molecules are shown by their SMILES. pKi: −log10 of the molar value.

The target of this test is T1, recombinant human NK3 receptor (Homo sapiens, UniProt P29371).
T1 construct: expressed in transfected cells; host or cells: HEK293 cells (transient expression), membranes
T1 sequence (P29371 1-465): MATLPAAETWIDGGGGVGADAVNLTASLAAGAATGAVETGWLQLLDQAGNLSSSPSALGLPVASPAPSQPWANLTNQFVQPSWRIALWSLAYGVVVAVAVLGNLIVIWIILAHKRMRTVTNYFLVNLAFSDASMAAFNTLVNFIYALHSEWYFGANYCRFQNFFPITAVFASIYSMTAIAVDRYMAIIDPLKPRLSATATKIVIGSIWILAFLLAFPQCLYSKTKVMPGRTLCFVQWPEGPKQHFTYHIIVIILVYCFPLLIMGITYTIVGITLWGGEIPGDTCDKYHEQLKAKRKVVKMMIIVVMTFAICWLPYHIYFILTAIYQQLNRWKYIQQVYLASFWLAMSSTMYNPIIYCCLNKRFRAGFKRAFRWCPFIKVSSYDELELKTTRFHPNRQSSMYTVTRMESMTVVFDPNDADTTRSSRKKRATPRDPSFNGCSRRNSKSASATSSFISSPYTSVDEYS
The test can be described thus: [3H]SR142801 competition binding assay. Conditions: [3H]SR142801, membranes from HEK293 cells transiently expressing recombinant human NK3 receptor; read-out: hNK3 Ki. The method, then:
[^3H]SR142801 Competition Binding Assay
hNK3 receptor binding experiment were performed using [^3H]SR142801 (Catalog No. TRK1035, specific activity: 74.0 Ci/mmol, Amersham, GE Healthcare UK limited, Buckinghamshire, UK) and membrane isolated from HEK293 cells transiently expressing recombinant human NK3 receptor. After thawing, the membrane homogenates were centrifuged at 48,000×g for 10 min at 4° C., the pellets were resuspended in the 50 mM Tris-HCl, 4 mM MnCl2, 1 μM phosphoramidon, 0.1% BSA binding buffer at pH 7.4 to a final assay concentration of 5 μg protein/well. For inhibition experiments, membranes were incubated with [^3H]SR142801 at a concentration equal to KD value of radioligand and 10 concentrations of the inhibitory compound (0.0003-10 μM) (in a total reaction volume of 500 μl) for 75 min at room temperature (RT). At the end of the incubation, membranes were filtered onto unitfilter (96-well white microplate with bonded GF/C filter preincubated 1 h in 0.3% PEI+0.3% BSA, Packard BioScience, Meriden, Conn.) with a Filtermate 196 harvester (Packard BioScience) and washed 4 times with ice-cold 50 mM Tris-HCl, pH 7.4 buffer. Nonspecific binding was measured in the presence of 10 μM SB222200 for both radioligands. The radioactivity on the filter was counted (5 min) on a Packard Top-count microplate scintillation counter with quenching correction after addition of 45 μl of microscint 40 (Canberra Packard S. A., Zürich, Switzerland) and shaking for 1 h. Inhibition curves were fitted according to the Hill equation: y=100/(1+(x/IC50)^nH), where nH=slope factor using Excel-fit 4 software (Microsoft). IC50 values were derived from the inhibition curve and the affinity constant (Ki) values were calculated using the Cheng-Prussoff equation Ki=IC50/(1+[L]/KD) where [L] is the concentration of radioligand and KD is its dissociation constant at the receptor, derived from the saturation isotherm. All experiments were performed in duplicate and the mean±standard error (SEM) of the individual Ki values was calculated.

Take `CC(CCN1CCN(S(C)(=O)=O)CC1)(C(=O)NCc1ccccc1OC(F)(F)F)c1ccc(Cl)c(Cl)c1` (stereo not drawn) [Example 19, 2-(3,4-Dichloro-phenyl)-4-(4-methanesulfonyl-piperazin-1-yl)-2-methyl-N-(2-trifluoromethoxy-benzyl)-butyramide]: the pKi (usually −log10 of the Ki, conventionally taken in molar units) was 6.37.
Take `CC(CCN1CCN(S(C)(=O)=O)CC1)(C(=O)NCc1ccc(C(F)(F)F)c(F)c1)c1ccc(Cl)c(Cl)c1` (stereo not drawn) [Example 20, 2-(3,4-Dichloro-phenyl)-N-(3-fluoro-4-trifluoromethyl-benzyl)-4-(4-methanesulfonyl-piperazin-1-yl)-2-methyl-butyramide]: the negative logarithm of the Ki (pKi) is 7.17.
On to `CC(CCN1CCN(S(C)(=O)=O)CC1)(C(=O)NCc1ccc(Cl)c(Cl)c1)c1ccc(Cl)c(Cl)c1` (stereo not drawn) [Example 21, N-(3,4-Dichloro-benzyl)-2-(3,4-dichloro-phenyl)-4-(4-methanesulfonyl-piperazin-1-yl)-2-methyl-butyramide], for which the negative logarithm of the Ki (pKi) was 7.18.
In the case of `Cc1ccc(CN(C)C(=O)C(C)(CCN2CCN(S(C)(=O)=O)CC2)c2ccc(Cl)c(Cl)c2)cc1` (stereo not drawn) [Example 22, 2-(3,4-Dichloro-phenyl)-4-(4-methanesulfonyl-piperazin-1-yl)-2,N-dimethyl-N-(4-methyl-benzyl)-butyramide] it was 7.11.
With `CN(Cc1ccc(-c2ccncc2)cc1)C(=O)C(C)(CCN1CCN(S(C)(=O)=O)CC1)c1ccc(Cl)c(Cl)c1` (stereo not drawn) [Example 23, 2-(3,4-Dichloro-phenyl)-4-(4-methanesulfonyl-piperazin-1-yl)-2,N-dimethyl-N-(4-pyridin-4-yl-benzyl)-butyramide], the negative logarithm of the Ki (pKi) was 6.70.
In the case of `CN(Cc1cccc(F)c1)C(=O)C(C)(CCN1CCN(S(C)(=O)=O)CC1)c1ccc(Cl)c(Cl)c1` (stereo not drawn) [Example 24, 2-(3,4-Dichloro-phenyl)-N-(3-fluoro-benzyl)-4-(4-methanesulfonyl-piperazin-1-yl)-2,N-dimethyl-butyramide] it was 6.65; in that of `COc1ccc(CN(C)C(=O)C(C)(CCN2CCN(S(C)(=O)=O)CC2)c2ccc(Cl)c(Cl)c2)cc1F` (stereo not drawn) [Example 25, 2-(3,4-Dichloro-phenyl)-N-(3-fluoro-4-methoxy-benzyl)-4-(4-methanesulfonyl-piperazin-1-yl)-2,N-dimethyl-butyramide], 6.87; in that of `COc1cc(CN(C)C(=O)C(C)(CCN2CCN(S(C)(=O)=O)CC2)c2ccc(Cl)c(Cl)c2)ccc1OC(F)F` (stereo not drawn) [Example 26, 2-(3,4-Dichloro-phenyl)-N-(4-difluoromethoxy-3-methoxy-benzyl)-4-(4-methanesulfonyl-piperazin-1-yl)-2,N-dimethyl-butyramide], 6.56.
The value for `CC(CCN1CCN(S(C)(=O)=O)CC1)(C(=O)NCc1ccc(C(F)(F)F)cc1)c1ccc(Cl)c(Cl)c1` (stereo not drawn) [Example 27, 2-(3,4-Dichloro-phenyl)-4-(4-methanesulfonyl-piperazin-1-yl)-2-methyl-N-(4-trifluoromethyl-benzyl)-butyramide] was 7.09; that for `CN(Cc1ccc(C(F)(F)F)cc1)C(=O)C(C)(CCN1CCN(S(C)(=O)=O)CC1)c1ccc(Cl)c(Cl)c1` (stereo not drawn) [Example 28, 2-(3,4-Dichloro-phenyl)-4-(4-methanesulfonyl-piperazin-1-yl)-2,N-dimethyl-N-(4-trifluoromethyl-benzyl)-butyramide] was 7.35.
The value for `CC(CCN1CCN(S(C)(=O)=O)CC1)(C(=O)NCc1ccc(Cl)cc1)c1ccc(Cl)c(Cl)c1` (stereo not drawn) [Example 29, N-(4-Chloro-benzyl)-2-(3,4-dichloro-phenyl)-4-(4-methanesulfonyl-piperazin-1-yl)-2-methyl-butyramide] was 7.01; that for `CC(CCN1CCN(S(C)(=O)=O)CC1)(C(=O)NCc1ccc(Cl)c(F)c1)c1ccc(Cl)c(Cl)c1` (stereo not drawn) [Example 30, N-(4-Chloro-3-fluoro-benzyl)-2-(3,4-dichloro-phenyl)-4-(4-methanesulfonyl-piperazin-1-yl)-2-methyl-butyramide] was 6.87.
On to `COc1ccc(CN(C)C(=O)C(C)(CCN2CCN(S(C)(=O)=O)[C@H](C)C2)c2ccc(Cl)c(Cl)c2)cc1F` (stereo partly drawn) [Example 31, 2-(3,4-Dichloro-phenyl)-N-(3-fluoro-4-methoxy-benzyl)-4-((R)-4-methanesulfonyl-3-methyl-piperazin-1-yl)-2,N-dimethyl-butyramide], for which the negative-log Ki (pKi) was 6.96.
The value for `COc1ccc(C(NC(=O)C(C)(CCN2CCN(S(C)(=O)=O)[C@H](C)C2)c2ccc(Cl)c(Cl)c2)C2CC2)cc1` (stereo partly drawn) [Example 32, N-[Cyclopropyl-(4-methoxy-phenyl)-methyl]-2-(3,4-dichloro-phenyl)-4-((R)-4-methanesulfonyl-3-methyl-piperazin-1-yl)-2-methyl-butyramide] was 7.77; that for `C[C@@H]1CN(CCC(C)(C(=O)N(C)Cc2ccc(F)c(C(F)(F)F)c2)c2ccc(Cl)c(Cl)c2)CCN1S(C)(=O)=O` (stereo partly drawn) [Example 33, 2-(3,4-Dichloro-phenyl)-N-(4-fluoro-3-trifluoromethyl-benzyl)-4-((R)-4-methanesulfonyl-3-methyl-piperazin-1-yl)-2,N-dimethyl-butyramide] was 7.80.
In the case of `C[C@@H]1CN(CCC(C)(C(=O)NCc2cc(C(F)(F)F)cc(C(F)(F)F)c2)c2ccc(Cl)c(Cl)c2)CCN1S(C)(=O)=O` (stereo partly drawn) [Example 34, N-(3,5-Bis-trifluoromethyl-benzyl)-2-(3,4-dichloro-phenyl)-4-((R)-4-methanesulfonyl-3-methyl-piperazin-1-yl)-2-methyl-butyramide] it was 7.32; in that of `COc1cc(CN(C)C(=O)C(C)(CCN2CCN(S(C)(=O)=O)[C@H](C)C2)c2ccc(Cl)c(Cl)c2)ccc1OC(F)F` (stereo partly drawn) [Example 35, 2-(3,4-Dichloro-phenyl)-N-(4-difluoromethoxy-3-methoxy-benzyl)-4-((R)-4-methanesulfonyl-3-methyl-piperazin-1-yl)-2,N-dimethyl-butyramide], 6.67.
The value for `Cc1ccc(CN(C)C(=O)C(C)(CCN2CCN(S(C)(=O)=O)[C@H](C)C2)c2ccc(Cl)c(Cl)c2)cc1` (stereo partly drawn) [Example 36, 2-(3,4-Dichloro-phenyl)-4-((R)-4-methanesulfonyl-3-methyl-piperazin-1-yl)-2,N-dimethyl-N-(4-methyl-benzyl)-butyramide] was 7.29; that for `C[C@@H]1CN(CCC(C)(C(=O)NCc2ccc(N(C)C)cc2)c2ccc(Cl)c(Cl)c2)CCN1S(C)(=O)=O` (stereo partly drawn) [Example 37, 2-(3,4-Dichloro-phenyl)-N-(4-dimethylamino-benzyl)-4-((R)-4-methanesulfonyl-3-methyl-piperazin-1-yl)-2-methyl-butyramide] was 6.31.
For `C[C@@H]1CN(CCC(C)(C(=O)NCc2ccc3nccnc3c2)c2ccc(Cl)c(Cl)c2)CCN1S(C)(=O)=O` (stereo partly drawn) [Example 38, 2-(3,4-Dichloro-phenyl)-4-((R)-4-methanesulfonyl-3-methyl-piperazin-1-yl)-2-methyl-N-quinoxalin-6-ylmethyl-butyramide], the negative-log Ki (pKi) is 6.26.
The value for `C[C@@H]1CN(CCC(C)(C(=O)N(C)Cc2ccc(Cl)c(C(F)(F)F)c2)c2ccc(Cl)c(Cl)c2)CCN1S(C)(=O)=O` (stereo partly drawn) [Example 39, N-(4-Chloro-3-trifluoromethyl-benzyl)-2-(3,4-dichloro-phenyl)-4-((R)-4-methanesulfonyl-3-methyl-piperazin-1-yl)-2,N-dimethyl-butyramide] was 7.90.
